SMILES strings stand for the structures.

Human Jak2 kinase domain, sequence (O60674 808-1132): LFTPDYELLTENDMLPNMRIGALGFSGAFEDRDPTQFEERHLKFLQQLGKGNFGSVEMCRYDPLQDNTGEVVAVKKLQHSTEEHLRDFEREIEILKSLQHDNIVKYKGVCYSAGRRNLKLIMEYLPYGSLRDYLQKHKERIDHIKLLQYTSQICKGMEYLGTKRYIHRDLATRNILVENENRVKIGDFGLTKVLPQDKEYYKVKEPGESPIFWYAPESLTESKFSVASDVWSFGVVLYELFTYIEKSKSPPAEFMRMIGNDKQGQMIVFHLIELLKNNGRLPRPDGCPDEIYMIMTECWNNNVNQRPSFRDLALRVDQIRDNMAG

This experiment concerns the target Human Jak2 kinase domain (Homo sapiens (Human), UniProt O60674). Kind of experiment: Jak2 inhibition assay (Omnia kinase). In kind it is biochemical. As to conditions: read-out: Jak2 Enzyme (% inhibition at 1000 nM), Table 1; at 1000 nM test compound. From the text: The assays described in Examples C, D, E and F for the determination of JAK1, JAK2, JAK3 and Tyk2 kinase activity, respectively, utilized the Omnia® Kinase fluorescence peptide substrate-based technology (Invitrogen). The specific components of the assay mixture are described in Examples C, D and E. […] Two-μL aliquots of these were transferred to a fresh plate for a ten-fold intermediate dilution with assay buffer. […] Human Jak2 kinase domain comprising amino acids 808-1132 was purchased from Invitrogen Corporation, Carlsbad, Calif.
As for `CC1(O)CCC(NC(=O)c2cnn3ccc(N4CCC[C@@H]4c4cc(F)ccc4F)nc23)CC1` (stereo partly drawn) [Example 51, 5-((R)-2-(2,5-difluorophenyl)pyrrolidin-1-yl)-N-(4-hydroxy-4-methylcyclohexyl)pyrazolo[1,5-a]pyrimidine-3-carboxamide], the inhibition at 1 µM was 82.5%.

For the compound `C[C@@H](NC(=O)c1cnn2ccc(N3CCC[C@@H]3c3cncc(F)c3)nc12)C(F)(F)F` [Example 129, 5-((R)-2-(5-fluoropyridin-3-yl)pyrrolidin-1-yl)-N-((R)-1,1,1-trifluoropropan-2-yl)pyrazolo[1,5-a]pyrimidine-3-carboxamide], the inhibition at 1 µM stood at 25.2%.

With `O=C(N[C@@H]1CCC[C@H]1O)c1cnn2ccc(N3CCC[C@@H]3c3cncc(F)c3)nc12` [Example 133, 5-((R)-2-(5-fluoropyridin-3-yl)pyrrolidin-1-yl)-N-((1R,2R)-2-hydroxycyclopentyl)pyrazolo[1,5-a]pyrimidine-3-carboxamide], the inhibition at 1 µM was 14.4%.

As to `CCc1ncc(F)cc1[C@H]1CCCN1c1ccn2ncc(C(=O)N[C@H]3CC[C@H](O)C3)c2n1` [Example 200, 5-((R)-2-(2-ethyl-5-fluoropyridin-3-yl)pyrrolidin-1-yl)-N-((1S,3S)-3-hydroxycyclopentyl)pyrazolo [1,5-a]pyrimidine-3-carboxamide], the inhibition at 1 µM amounted to 12.5%.

(Values after US10758542B2, “Substituted pyrazolo[l,5-a]pyrimidine compounds as Trk kinase inhibitors” (Array BioPharma Inc., priority 2009, dated 2020).)
